{"source": "patent US20120065126A1", "about": "“Pharmaceutical Compositions Containing Antifungal Peptides” (BASF SE, priority 2009, published 2012)", "key": {"[1]": {"test_system": "Malassezia furfur strain DSM 6170", "assay": "Long-term stability of P18 solution, growth test (CFU)", "assay_type": "cell-based", "procedure": "(§1) The studies described hereinafter were conducted on the Malassezia furfur strain DSM 6170.\nSince storage may be necessary over a prolonged period, a 1 mM P18 peptide solution (P18 sequence H-KWKLFKKIPKFLHLAKKF-NH2) was subsequently stored at 37° C. over 12 weeks, and the antifungal activity of the stored solution on Malassezia furfur was compared with the activity of a freshly made up 1 mM P18 peptide solution. This was done using a growth test, which was conducted as follows:\nGrowth medium: M472 Pityrosporum medium according to DSMZ 40 g/1 malt extract 20 g/l ox bile\n(§2) The growth test was effected as follows: a shake culture containing M472 Pityrosporum medium was inoculated with M. furfur and incubated with shaking at 30° C. and 200 rpm overnight.\nA 96-well microtiter plate was filled with 100 μl per well of M472 Pityrosporum medium and inoculated with M. furfur suspension from the overnight culture. The M. furfur suspension was adjusted at the start of the experiment to an optical density, measured at 600 nm, of 0.02. The concentrates of the inhibitor solutions were 1 mM in water.\nThe following growth was compared: • M. furfur suspension without addition of an inhibitor • M. furfur suspension and addition of an aqueous fresh P18 solution with a final concentration of 50 μM • M. furfur suspension and addition of an aqueous fresh P18 solution with a final concentration of 25 μM • M. furfur suspension and addition of a P18 solution which had been stored at 37° C. for 12 weeks with a final concentration of 50 μM • M. furfur suspension and addition of a P18 solution which had been stored at 37° C. for 12 weeks with a final concentration of 25 μM\nThe microtiter plate was incubated with shaking at 30° C.\nThe growth was observed by measuring the optical density over 24 hours. Subsequently, the colony forming units (CFU) were determined by streaking 1 μl and 5 μl of each of the suspensions and, after incubation over 6 days, counting the colonies. The CFU was determined in order to rule out any influence of the biphasic medium, and also the growth form of M. furfur, on the optical density. The experiments were conducted at least in triple determinations."}, "[2]": {"assay": "Formulability of P18 in shampoo base formulations", "assay_type": "physicochemical", "conditions": "10 mM P18 in formulations 31-1 and 31-2, 5 mM in 31-3; pH 6-7", "procedure": "The formulability of the peptide P18 was tested in three different shampoo base formulations. For this purpose, the formulations with the following compositions were first produced:\nThe components were mixed and dissolved. NaOH was used to adjust the pH to pH 6-7. Thereafter, two 100 mM solutions of peptide P18 (P18 sequence H-KWKLFKKIPKFLHLAKKF-NH2) were prepared. DMSO was the solvent for one solution; it was water for the other solution. The appropriate volume of the 100 mM P18 peptide solution was added to each of the formulations, such that the final concentration in formulations 31-1 and 31-2 was 10 mM, and the final concentration of peptide P18 in formulation 31-3 was 5 mM."}, "M. furfur": {"test_system": "M. furfur", "assay": "Long-term stability of P18 in shampoo base formulations (CFU)", "assay_type": "cell-based, Malassezia furfur", "conditions": "formulations 31-1-10, 31-3-5, 31-3-2 stored at 40° C.; 0, 12 and 22 days", "procedure": "as §1\nThe long-term stability of P18 peptide (H-KWKLFKKIPKFLHLAKKF-NH2; carboxyl terminus amidated) in shampoo base formulations was tested.\nThe Texapon NSO and Tego Betain L7 components were mixed and dissolved. NaOH was used to adjust the pH to pH 6-7. Thereafter, a 100 mM aqueous solution of peptide P18 was prepared. The appropriate volume of the 100 mM P18 peptide solution was added to each of the formulations, such that the final concentrations of peptide P18 listed in Table 15 were obtained.\nThe formulations were stored at 40° C.\nAfter 0; 12 and 22 days, the effect of the formulations on M. furfur was studied.\nas §2\nA 96-well microtiter plate was filled with 100 μl per well of M472 Pityrosporum medium and inoculated with M. furfur suspension from the overnight culture. The M. furfur suspension was adjusted at the start of the experiment to an optical density, measured at 600 nm, of 0.1. […]\nAfter 24 hours, the colony forming units (CFU) were determined. For this purpose, 1 μl and 10 μl of each of the suspensions were streaked and, after incubation over the course of 6 days, the colonies were counted."}, "C. albicans (DSM 11948)": {"test_system": "C. albicans (DSM 11948)", "assay": "P18 in pharmaceutical base formulation (CFU)", "assay_type": "cell-based, Candida albicans", "conditions": "mixed 1:9 with suspension", "procedure": "The aim of the experiment was to study the effect of a pharmaceutical base formulation with the P18 peptide ingredient (P18 sequence H-KWKLFKKIPKFLHLAKKF-NH2 (Bachem AG, Switzerland)). For this purpose, the following base formulation was used: […]\n1% hydroxycellulose 10% propylene glycol made up with water.\nBased on the base formulation, formulations with rising P18 concentrations (500 ppm to 10 000 ppm) were prepared from a 20% concentrate solution.\nThe effect of the formulations on C. albicans (DSM 11948) was studied.\nYM growth medium (Becton, Dickinson and Company, Sparks, USA) 3 g of yeast extract 3 g of malt extract 5 g of peptone 10 g of dextrose make up to 1 liter, set pH 6.2\nThe growth test was effected as follows: 5 ml of YM medium were inoculated with C. albicans and incubated at 30° C. and 200 rpm overnight.\n1.5 ml reaction vessels were each filled with 1 ml of YM medium and inoculated with the C. albicans suspension from the overnight culture such that an optical density—measured at 600 nm—of 0.1 was obtained at the start of the experiment. The resulting C. albicans suspension was mixed in a ratio of 1:9 (formulation: C. albicans suspension) with the formulations. 1 μl of the culture was diluted with 20 μl of YM medium after 5 minutes, 10 minutes, 20 minutes and 60 minutes, and then plated out. After incubation over 24 hours, the colonies on the plates were counted."}}}
{"substance": "H-KWKLFKKIPKFLHLAKKF-NH2 [P18, H-KWKLFKKIPKFLHLAKKF-NH2]", "values": [{"measurement": "Effect of storage on the activity of the solution", "setting": "[1]; 1 mM P18 peptide solution, 37° C., 12 weeks", "value": "has not affected the activity"}, {"measurement": "Colony forming units (CFU)", "setting": "[1]; aqueous P18 solution (fresh), final conc. 25 μM, incubation 16-18 h", "value": "5 ± 8", "unit": "CFU"}, {"measurement": "Colony forming units (CFU)", "setting": "[1]; aqueous P18 solution (fresh), final conc. 25 μM, incubation 24 h", "value": "1 ± 2", "unit": "CFU"}, {"measurement": "Colony forming units (CFU)", "setting": "[1]; aqueous P18 solution (fresh), final conc. 50 μM, incubation 16-18 h", "value": "0 ± 0", "unit": "CFU"}, {"measurement": "Colony forming units (CFU)", "setting": "[1]; aqueous P18 solution (fresh), final conc. 50 μM, incubation 24 h", "value": "1 ± 1", "unit": "CFU"}, {"measurement": "Colony forming units (CFU)", "setting": "[1]; aqueous P18 solution stored at 37° C. for 12 weeks, final conc. 25 μM, incubation 16-18 h", "value": "6 ± 7", "unit": "CFU"}, {"measurement": "Colony forming units (CFU)", "setting": "[1]; aqueous P18 solution stored at 37° C. for 12 weeks, final conc. 25 μM, incubation 24 h", "value": "5 ± 5", "unit": "CFU"}, {"measurement": "Colony forming units (CFU)", "setting": "[1]; aqueous P18 solution stored at 37° C. for 12 weeks, final conc. 50 μM, incubation 16-18 h", "value": "0 ± 0", "unit": "CFU"}, {"measurement": "Colony forming units (CFU)", "setting": "[1]; aqueous P18 solution stored at 37° C. for 12 weeks, final conc. 50 μM, incubation 24 h", "value": "1 ± 1", "unit": "CFU"}, {"measurement": "Appearance of the formulations with P18", "setting": "[2]", "value": "clear and homogenous"}, {"measurement": "Long-term stability in shampoo base formulations", "setting": "M. furfur", "value": "stable properties"}, {"measurement": "Colony forming units after the incubation time specified", "setting": "C. albicans (DSM 11948); 10 000 ppm in the formulation, 5 minutes", "value": "0.5 ± 0", "unit": "CFU"}, {"measurement": "Colony forming units after the incubation time specified", "setting": "C. albicans (DSM 11948); 10 000 ppm in the formulation, 10 minutes", "value": "0 ± 0", "unit": "CFU"}, {"measurement": "Colony forming units after the incubation time specified", "setting": "C. albicans (DSM 11948); 10 000 ppm in the formulation, 20 minutes", "value": "0 ± 0", "unit": "CFU"}, {"measurement": "Colony forming units after the incubation time specified", "setting": "C. albicans (DSM 11948); 10 000 ppm in the formulation, 60 minutes", "value": "0 ± 0", "unit": "CFU"}, {"measurement": "Colony forming units after the incubation time specified", "setting": "C. albicans (DSM 11948); 500 ppm in the formulation, 5 minutes", "value": "1484 ± 28", "unit": "CFU"}, {"measurement": "Colony forming units after the incubation time specified", "setting": "C. albicans (DSM 11948); 500 ppm in the formulation, 10 minutes", "value": "1445 ± 38", "unit": "CFU"}, {"measurement": "Colony forming units after the incubation time specified", "setting": "C. albicans (DSM 11948); 500 ppm in the formulation, 20 minutes", "value": "1262 ± 354", "unit": "CFU"}, {"measurement": "Colony forming units after the incubation time specified", "setting": "C. albicans (DSM 11948); 500 ppm in the formulation, 60 minutes", "value": "962 ± 738", "unit": "CFU"}, {"measurement": "Colony forming units after the incubation time specified", "setting": "C. albicans (DSM 11948); 1000 ppm in the formulation, 5 minutes", "value": "863 ± 553", "unit": "CFU"}, {"measurement": "Colony forming units after the incubation time specified", "setting": "C. albicans (DSM 11948); 1000 ppm in the formulation, 10 minutes", "value": "616 ± 76", "unit": "CFU"}, {"measurement": "Colony forming units after the incubation time specified", "setting": "C. albicans (DSM 11948); 1000 ppm in the formulation, 20 minutes", "value": "251 ± 109", "unit": "CFU"}, {"measurement": "Colony forming units after the incubation time specified", "setting": "C. albicans (DSM 11948); 1000 ppm in the formulation, 60 minutes", "value": "3.25 ± 1.8", "unit": "CFU"}, {"measurement": "Colony forming units after the incubation time specified", "setting": "C. albicans (DSM 11948); 2000 ppm in the formulation, 5 minutes", "value": "29 ± 23", "unit": "CFU"}, {"measurement": "Colony forming units after the incubation time specified", "setting": "C. albicans (DSM 11948); 2000 ppm in the formulation, 10 minutes", "value": "3.5 ± 3.5", "unit": "CFU"}, {"measurement": "Colony forming units after the incubation time specified", "setting": "C. albicans (DSM 11948); 2000 ppm in the formulation, 20 minutes", "value": "0.25 ± 0.4", "unit": "CFU"}, {"measurement": "Colony forming units after the incubation time specified", "setting": "C. albicans (DSM 11948); 2000 ppm in the formulation, 60 minutes", "value": "0 ± 0", "unit": "CFU"}, {"measurement": "Colony forming units after the incubation time specified", "setting": "C. albicans (DSM 11948); 5000 ppm in the formulation, 5 minutes", "value": "1 ± 0.7", "unit": "CFU"}, {"measurement": "Colony forming units after the incubation time specified", "setting": "C. albicans (DSM 11948); 5000 ppm in the formulation, 10 minutes", "value": "0 ± 0", "unit": "CFU"}, {"measurement": "Colony forming units after the incubation time specified", "setting": "C. albicans (DSM 11948); 5000 ppm in the formulation, 20 minutes", "value": "0 ± 0", "unit": "CFU"}, {"measurement": "Colony forming units after the incubation time specified", "setting": "C. albicans (DSM 11948); 5000 ppm in the formulation, 60 minutes", "value": "0 ± 0", "unit": "CFU"}]}
